The source made the active and inactive calls. No rule for the calls is given here.

In the series the test system is CCRIS mutagenicity, Ames/micronucleus/aberration tests. The experiment in a line: CCRIS mutagenicity studies.

Turning to `O=C/C=C/C=C/C=O`, the mutagenic call was “inactive; negative” (Test System: AMES SALMONELLA TYPHIMURIUM, Strain/Indicator: TA97, Metabolic Activation: NONE, Method: PREINCUBATION); “active; positive” (Test System: AMES SALMONELLA TYPHIMURIUM, Strain/Indicator: TA97, Metabolic Activation: NONE, Method: STANDARD PLATE); “inactive; negative” (Test System: AMES SALMONELLA TYPHIMURIUM, Strain/Indicator: TA97, Metabolic Activation: RAT, LIVER, S-9, AROCLOR 1254, Method: PREINCUBATION); “active; positive” (Test System: AMES SALMONELLA TYPHIMURIUM, Strain/Indicator: TA97, Metabolic Activation: RAT, LIVER, S-9, AROCLOR 1254, Method: STANDARD PLATE); “inactive; negative” (Test System: AMES SALMONELLA TYPHIMURIUM, Strain/Indicator: TA98, Metabolic Activation: NONE, Method: PREINCUBATION); “inactive; negative” (Test System: AMES SALMONELLA TYPHIMURIUM, Strain/Indicator: TA98, Metabolic Activation: RAT, LIVER, S-9, AROCLOR 1254, Method: PREINCUBATION). In addition, the mutagenic call was “inactive; negative” (Test System: AMES SALMONELLA TYPHIMURIUM, Strain/Indicator: TA98, Metabolic Activation: RAT, LIVER, S-9, AROCLOR 1254, Method: STANDARD PLATE); “inactive; negative” (Test System: AMES SALMONELLA TYPHIMURIUM, Strain/Indicator: TA100, Metabolic Activation: NONE, Method: PREINCUBATION); “inactive; negative” (Test System: AMES SALMONELLA TYPHIMURIUM, Strain/Indicator: TA100, Metabolic Activation: NONE, Method: STANDARD PLATE); “inactive; negative” (Test System: AMES SALMONELLA TYPHIMURIUM, Strain/Indicator: TA100, Metabolic Activation: RAT, LIVER, S-9, AROCLOR 1254, Method: PREINCUBATION); “inactive; negative” (Test System: AMES SALMONELLA TYPHIMURIUM, Strain/Indicator: TA100, Metabolic Activation: RAT, LIVER, S-9, AROCLOR 1254, Method: STANDARD PLATE); “inactive; negative” (Test System: AMES SALMONELLA TYPHIMURIUM, Strain/Indicator: TA102, Metabolic Activation: NONE, Method: PREINCUBATION). Besides, the mutagenic call reads like this: (Test System: AMES SALMONELLA TYPHIMURIUM, Strain/Indicator: TA102, Metabolic Activation: RAT, LIVER, S-9, AROCLOR 1254, Method: PREINCUBATION) “inactive; negative”; (Test System: AMES SALMONELLA TYPHIMURIUM, Strain/Indicator: TA104, Metabolic Activation: NONE, Method: PREINCUBATION) “inactive; negative”; (Test System: AMES SALMONELLA TYPHIMURIUM, Strain/Indicator: TA104, Metabolic Activation: RAT, LIVER, S-9, AROCLOR 1254, Method: PREINCUBATION) “inactive; negative”; (Test System: AMES SALMONELLA TYPHIMURIUM, Strain/Indicator: TA1535, Metabolic Activation: NONE, Method: PREINCUBATION) “inactive; negative”; (Test System: AMES SALMONELLA TYPHIMURIUM, Strain/Indicator: TA1535, Metabolic Activation: RAT, LIVER, S-9, AROCLOR 1254, Method: PREINCUBATION) “inactive; negative”; (Test System: AMES SALMONELLA TYPHIMURIUM, Strain/Indicator: TA1535, Metabolic Activation: RAT, LIVER, S-9, AROCLOR 1254, Method: STANDARD PLATE) “inactive; negative”. For the same compound, the mutagenic call was “inactive; negative” (Test System: AMES SALMONELLA TYPHIMURIUM, Strain/Indicator: TA1538, Metabolic Activation: RAT, LIVER, S-9, AROCLOR 1254, Method: STANDARD PLATE); “inactive; negative” (Test System: CHINESE HAMSTER OVARY, Strain/Indicator: CHO-K1-BH4 (HGPRT), Metabolic Activation: NONE, Method: STANDARD PLATE); “active; positive” (Test System: CHINESE HAMSTER V-79, Strain/Indicator: V-79 (HGPRT)/8-AZAGUANINE, Metabolic Activation: NONE); “active; positive” (Test System: CHINESE HAMSTER V-79, Strain/Indicator: V-79/6-THIOGUANINE, Metabolic Activation: NONE); “inactive; negative” (Test System: E. COLI, Strain/Indicator: WP2 UVRA, Metabolic Activation: NONE, Method: PREINCUBATION); “inactive; negative” (Test System: E. COLI, Strain/Indicator: WP2 UVRA, Metabolic Activation: RAT, LIVER, S-9, AROCLOR 1254, Method: PREINCUBATION). Also, the mutagenic call (Test System: UDS RODENT HEPATOCYTES, Strain/Indicator: THY INCORP (NON-S-PHASE), Metabolic Activation: NONE, Method: AUTORADIOGRAPHY) was “inactive; negative”.
In the case of `Nc1ccc(O)c2c1C(O)=CC(=O)C2=O`, the mutagenic call (Test System: Ames Salmonella typhimurium, Strain/Indicator: TA97, Metabolic Activation: None, Method: Preincubation) is “inactive; negative”; the mutagenic call (Test System: Ames Salmonella typhimurium, Strain/Indicator: TA97, Metabolic Activation: Rat, Liver, S9, Aroclor 1254, Method: Preincubation) was “inactive; negative”; the mutagenic call (Test System: Ames Salmonella typhimurium, Strain/Indicator: TA98, Metabolic Activation: None, Method: Preincubation) was “active; positive”; the mutagenic call (Test System: Ames Salmonella typhimurium, Strain/Indicator: TA98, Metabolic Activation: Rat, Liver, S9, Aroclor 1254, Method: Preincubation) is “inactive; negative”; the mutagenic call (Test System: Ames Salmonella typhimurium, Strain/Indicator: TA100, Metabolic Activation: None, Method: Preincubation) was “inactive; negative”; the mutagenic call (Test System: Ames Salmonella typhimurium, Strain/Indicator: TA100, Metabolic Activation: Rat, Liver, S9, Aroclor 1254, Method: Preincubation) is “inactive; negative”. Further, the mutagenic call was “inactive; negative” (Test System: Ames Salmonella typhimurium, Strain/Indicator: TA102, Metabolic Activation: None, Method: Preincubation) and “active; positive” (Test System: Ames Salmonella typhimurium, Strain/Indicator: TA102, Metabolic Activation: Rat, Liver, S9, Aroclor 1254, Method: Preincubation).
With `O=C1CCc2c1cc(C(F)(F)F)c1c2ccc2ccccc21`, the mutagenic call (Test System: AMES SALMONELLA TYPHIMURIUM, Strain/Indicator: TA100, Metabolic Activation: RAT, LIVER, S-9, AROCLOR 1254) was “active; positive”.

Values taken from PubChem BioAssay AID1259407 (Chemical Carcinogenesis Research Information System (CCRIS), 2018).
